Reference: patent US6864283B2, “Oxy-and amino-substituted tetrahydrofuryl derivatives with antitumour activity” (Pharma Mar, S.A., priority 2000, dated 2005)

How the values were obtained:
Type in all cases: cell-based
P388 leukemia = assay: IC50 against P388 leukemia cells; conditions: Mus musculus
A459 human lung = assay: IC50 against A459 human lung cells
MEL28 melanoma = assay: IC50 against MEL28 melanoma cells; conditions: Homo sapiens, SK-MEL-28
HT29 human colon = assay: IC50 against HT29 human colon cells; conditions: HT-29

Measured: IC50

CCCCCCCCCCCCCC[C@@H]1OC[C@H](N)[C@@H]1O [IK-8-73-4]
0.01 µg/mL: all assays above
